Legend:
Test in all cases: KINOMEscan
Format in all cases: binding
Conditions in all cases: read-out: percent control
[1] = molecular target: KIT(V559D, T670I) (Homo sapiens (Human), UniProt P10721, T670I/V559D)
Text: (§1) Example 2. In Vitro Kinase Selectivity Profiling of the Compounds of the Present Disclosure

[2] = molecular target: TAOK2 (Homo sapiens (Human), UniProt Q9UL54)
Text: as §1

[3] = molecular target: DMPK (Homo sapiens (Human), UniProt Q09013)
Text: as §1

[4] = molecular target: PAK3 (Homo sapiens (Human), UniProt O75914)
Text: as §1

[5] = molecular target: PIM1 (Homo sapiens (Human), UniProt P11309)
Text: as §1

[6] = molecular target: BMX (Homo sapiens (Human), UniProt P51813)
Text: as §1

[7] = molecular target: TNK2 (Homo sapiens (Human), UniProt Q07912)
Sequence of TNK2 (Q07912 whole entry): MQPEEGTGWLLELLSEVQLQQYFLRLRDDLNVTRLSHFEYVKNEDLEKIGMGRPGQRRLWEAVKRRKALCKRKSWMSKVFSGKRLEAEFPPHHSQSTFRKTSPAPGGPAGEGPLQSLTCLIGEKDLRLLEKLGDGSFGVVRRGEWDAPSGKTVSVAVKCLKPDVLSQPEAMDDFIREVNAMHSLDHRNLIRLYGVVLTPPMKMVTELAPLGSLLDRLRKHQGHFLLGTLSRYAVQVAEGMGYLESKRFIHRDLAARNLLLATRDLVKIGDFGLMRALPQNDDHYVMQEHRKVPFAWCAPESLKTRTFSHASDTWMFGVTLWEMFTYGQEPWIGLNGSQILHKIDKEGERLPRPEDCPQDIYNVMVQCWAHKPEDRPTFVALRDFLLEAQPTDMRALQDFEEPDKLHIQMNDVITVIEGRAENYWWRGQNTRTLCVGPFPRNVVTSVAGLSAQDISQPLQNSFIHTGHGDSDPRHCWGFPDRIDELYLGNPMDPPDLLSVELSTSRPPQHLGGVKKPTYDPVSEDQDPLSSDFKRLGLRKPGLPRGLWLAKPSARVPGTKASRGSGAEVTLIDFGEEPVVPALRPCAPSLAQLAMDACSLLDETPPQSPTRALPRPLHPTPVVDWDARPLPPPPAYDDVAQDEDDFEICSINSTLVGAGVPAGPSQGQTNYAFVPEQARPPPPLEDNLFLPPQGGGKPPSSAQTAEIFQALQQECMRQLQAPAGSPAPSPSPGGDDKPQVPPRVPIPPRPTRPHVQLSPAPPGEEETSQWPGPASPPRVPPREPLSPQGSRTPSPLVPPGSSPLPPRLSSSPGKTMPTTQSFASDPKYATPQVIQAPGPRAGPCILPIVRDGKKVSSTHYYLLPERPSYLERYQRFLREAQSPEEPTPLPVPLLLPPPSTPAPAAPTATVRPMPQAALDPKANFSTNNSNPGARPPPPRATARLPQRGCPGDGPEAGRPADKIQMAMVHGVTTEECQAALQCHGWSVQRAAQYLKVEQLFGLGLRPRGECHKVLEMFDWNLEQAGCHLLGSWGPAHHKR
Text: as §1

[8] = molecular target: CAMK4 (Homo sapiens (Human), UniProt Q16566)
Text: as §1

[9] = molecular target: HIPK3 (Homo sapiens (Human), UniProt Q9H422)
Text: as §1

[10] = molecular target: ACVR2B (Homo sapiens (Human), UniProt Q13705)
Text: as §1

[11] = molecular target: TAOK1 (Homo sapiens (Human), UniProt Q7L7X3)
Text: as §1

[12] = molecular target: CHEK1 (Homo sapiens (Human), UniProt O14757)
Text: as §1

[13] = molecular target: PIK3CA(E545K) (Homo sapiens (Human), UniProt P42336, E545K)
Text: as §1

[14] = molecular target: ALK(L1196M) (Homo sapiens (Human), UniProt Q9UM73, L1196M)
Text: as §1

[15] = molecular target: GRK2 (Homo sapiens (Human), UniProt P25098)
Text: as §1

[16] = molecular target: ICK (Homo sapiens (Human), UniProt Q9UPZ9)
Text: as §1

[17] = molecular target: MEK6 (Homo sapiens (Human), UniProt P52564)
Text: as §1

[18] = molecular target: PIKFYVE (Homo sapiens (Human), UniProt Q9Y2I7)
Text: as §1

[19] = molecular target: CAMK1D (Homo sapiens (Human), UniProt Q8IU85)
Sequence of CAMK1D (Q8IU85 whole entry): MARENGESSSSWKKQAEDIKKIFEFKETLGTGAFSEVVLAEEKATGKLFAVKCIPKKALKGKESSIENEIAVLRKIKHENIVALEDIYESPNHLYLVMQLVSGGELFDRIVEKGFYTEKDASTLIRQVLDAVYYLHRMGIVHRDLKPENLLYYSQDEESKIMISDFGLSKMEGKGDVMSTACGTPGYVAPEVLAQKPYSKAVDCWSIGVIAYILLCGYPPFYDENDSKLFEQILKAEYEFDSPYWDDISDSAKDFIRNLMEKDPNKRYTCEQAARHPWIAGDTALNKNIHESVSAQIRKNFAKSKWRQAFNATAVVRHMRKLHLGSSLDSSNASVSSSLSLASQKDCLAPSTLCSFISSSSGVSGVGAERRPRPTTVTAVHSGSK
Text: as §1

[20] = molecular target: SNARK (Homo sapiens (Human), UniProt Q9H093)
Text: as §1

[21] = molecular target: ADCK4 (Homo sapiens (Human), UniProt Q96D53)
Text: as §1

[22] = molecular target: EPHA5 (Homo sapiens (Human), UniProt P54756)
Text: as §1

[23] = molecular target: KIT(L576P) (Homo sapiens (Human), UniProt P10721, L576P)
Text: as §1

[24] = molecular target: TYK2(JH1domain-catalytic) (Homo sapiens (Human), UniProt P29597)
Sequence of TYK2(JH1domain-catalytic) (P29597 897-1176 limits assumed): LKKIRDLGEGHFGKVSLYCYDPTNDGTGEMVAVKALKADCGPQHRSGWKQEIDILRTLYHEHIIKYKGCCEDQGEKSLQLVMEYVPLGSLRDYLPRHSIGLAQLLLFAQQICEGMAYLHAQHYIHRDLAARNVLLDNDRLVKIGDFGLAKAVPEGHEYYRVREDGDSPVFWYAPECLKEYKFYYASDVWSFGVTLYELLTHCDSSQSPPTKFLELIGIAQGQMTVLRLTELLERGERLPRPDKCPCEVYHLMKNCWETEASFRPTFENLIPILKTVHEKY
Text: as §1

[25] = molecular target: BRAF(V600E) (Homo sapiens (Human), UniProt P15056, V600E)
Text: as §1

[26] = molecular target: CAMK1 (Homo sapiens (Human), UniProt Q14012)
Text: as §1

[27] = molecular target: WNK2 (Homo sapiens (Human), UniProt Q9Y3S1)
Sequence of WNK2 (Q9Y3S1 whole entry): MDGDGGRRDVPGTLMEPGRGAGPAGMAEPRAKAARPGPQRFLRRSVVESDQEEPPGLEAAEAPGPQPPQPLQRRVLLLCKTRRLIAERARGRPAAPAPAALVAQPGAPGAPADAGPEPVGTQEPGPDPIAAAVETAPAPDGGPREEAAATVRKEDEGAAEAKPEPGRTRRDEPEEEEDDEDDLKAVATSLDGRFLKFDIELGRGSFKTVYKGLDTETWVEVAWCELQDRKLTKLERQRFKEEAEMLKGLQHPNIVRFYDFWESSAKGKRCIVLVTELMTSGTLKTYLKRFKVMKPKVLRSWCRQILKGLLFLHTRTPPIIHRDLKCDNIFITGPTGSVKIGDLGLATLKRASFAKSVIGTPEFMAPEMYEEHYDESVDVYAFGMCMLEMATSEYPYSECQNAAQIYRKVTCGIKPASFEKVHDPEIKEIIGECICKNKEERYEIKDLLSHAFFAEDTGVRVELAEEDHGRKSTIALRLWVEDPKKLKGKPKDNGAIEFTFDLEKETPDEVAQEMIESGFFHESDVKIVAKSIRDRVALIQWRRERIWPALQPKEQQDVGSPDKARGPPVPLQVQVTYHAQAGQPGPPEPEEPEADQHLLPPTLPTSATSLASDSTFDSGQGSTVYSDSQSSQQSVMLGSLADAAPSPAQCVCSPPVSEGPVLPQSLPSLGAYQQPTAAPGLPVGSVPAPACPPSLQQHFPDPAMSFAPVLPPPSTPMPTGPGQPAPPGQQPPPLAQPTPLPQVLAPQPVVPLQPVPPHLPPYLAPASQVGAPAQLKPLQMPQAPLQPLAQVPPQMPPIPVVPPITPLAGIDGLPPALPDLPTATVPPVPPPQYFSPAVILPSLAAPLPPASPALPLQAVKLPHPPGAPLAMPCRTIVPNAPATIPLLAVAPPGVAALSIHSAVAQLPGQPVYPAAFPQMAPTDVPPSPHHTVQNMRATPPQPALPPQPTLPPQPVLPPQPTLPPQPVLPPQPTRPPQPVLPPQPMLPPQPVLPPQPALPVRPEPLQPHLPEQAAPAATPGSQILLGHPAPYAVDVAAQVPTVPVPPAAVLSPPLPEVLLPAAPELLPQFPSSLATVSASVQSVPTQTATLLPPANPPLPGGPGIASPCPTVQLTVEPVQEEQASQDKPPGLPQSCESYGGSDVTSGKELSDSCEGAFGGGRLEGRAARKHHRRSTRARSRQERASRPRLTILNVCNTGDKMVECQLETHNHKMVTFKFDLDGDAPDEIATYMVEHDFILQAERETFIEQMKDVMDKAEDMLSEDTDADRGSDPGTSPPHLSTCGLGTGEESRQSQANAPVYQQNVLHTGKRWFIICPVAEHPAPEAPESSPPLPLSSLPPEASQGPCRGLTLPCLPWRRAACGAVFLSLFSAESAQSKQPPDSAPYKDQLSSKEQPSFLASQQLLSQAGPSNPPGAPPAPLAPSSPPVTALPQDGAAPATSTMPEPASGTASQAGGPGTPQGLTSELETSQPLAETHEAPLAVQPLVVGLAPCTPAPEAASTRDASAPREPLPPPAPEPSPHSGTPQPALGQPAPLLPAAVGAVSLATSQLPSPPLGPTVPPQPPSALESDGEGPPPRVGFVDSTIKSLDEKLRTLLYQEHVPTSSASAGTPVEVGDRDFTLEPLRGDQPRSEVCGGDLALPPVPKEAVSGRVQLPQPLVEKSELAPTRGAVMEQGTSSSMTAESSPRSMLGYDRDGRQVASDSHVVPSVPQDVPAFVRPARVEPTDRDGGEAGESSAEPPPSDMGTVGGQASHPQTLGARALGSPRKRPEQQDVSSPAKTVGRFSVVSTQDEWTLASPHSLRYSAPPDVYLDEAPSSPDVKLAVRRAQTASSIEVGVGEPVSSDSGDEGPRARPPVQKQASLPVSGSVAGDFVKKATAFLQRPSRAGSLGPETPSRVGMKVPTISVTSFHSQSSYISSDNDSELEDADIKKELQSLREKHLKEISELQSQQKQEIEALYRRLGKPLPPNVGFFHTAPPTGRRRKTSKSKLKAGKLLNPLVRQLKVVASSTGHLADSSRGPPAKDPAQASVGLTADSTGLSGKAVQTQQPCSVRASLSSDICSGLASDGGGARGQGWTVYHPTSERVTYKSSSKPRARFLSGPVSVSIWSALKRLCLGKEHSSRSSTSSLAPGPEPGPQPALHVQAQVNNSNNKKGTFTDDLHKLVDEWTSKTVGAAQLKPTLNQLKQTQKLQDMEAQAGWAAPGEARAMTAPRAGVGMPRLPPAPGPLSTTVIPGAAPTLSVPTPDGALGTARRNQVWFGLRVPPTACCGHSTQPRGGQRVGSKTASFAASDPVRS
Text: as §1

[28] = molecular target: CAMK2D (Homo sapiens (Human), UniProt Q13557)
Text: as §1

[29] = molecular target: MELK (Homo sapiens (Human), UniProt Q14680)
Text: as §1

[30] = molecular target: LTK (Homo sapiens (Human), UniProt P29376)
Text: as §1

[31] = molecular target: CDK4-cyclinD1 (Homo sapiens (Human), UniProt P11802)
Text: as §1

[32] = molecular target: FAK (Homo sapiens (Human), UniProt Q05397)
Text: as §1

[33] = molecular target: HIPK1 (Homo sapiens (Human), UniProt Q86Z02)
Text: as §1

[34] = molecular target: MAK (Homo sapiens (Human), UniProt P20794)
Text: as §1

[35] = molecular target: DYRK2 (Homo sapiens (Human), UniProt Q92630)
Text: as §1

[36] = molecular target: MEK2 (Homo sapiens (Human), UniProt P36507)
Sequence of MEK2 (P36507 whole entry): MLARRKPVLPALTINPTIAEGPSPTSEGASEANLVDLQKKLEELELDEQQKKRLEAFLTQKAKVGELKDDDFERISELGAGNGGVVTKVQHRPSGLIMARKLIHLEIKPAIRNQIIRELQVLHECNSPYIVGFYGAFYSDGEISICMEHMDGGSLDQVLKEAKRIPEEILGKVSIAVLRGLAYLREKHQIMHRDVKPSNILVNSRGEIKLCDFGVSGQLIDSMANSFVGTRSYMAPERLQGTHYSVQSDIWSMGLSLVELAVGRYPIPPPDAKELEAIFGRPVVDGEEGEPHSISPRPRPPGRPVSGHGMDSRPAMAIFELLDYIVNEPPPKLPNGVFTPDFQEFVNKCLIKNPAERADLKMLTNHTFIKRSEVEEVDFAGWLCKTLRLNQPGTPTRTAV
Text: as §1

[37] = molecular target: SRC (Homo sapiens (Human), UniProt P12931)
Text: as §1

[38] = molecular target: FGFR4 (Homo sapiens (Human), UniProt P22455)
Text: as §1

[39] = molecular target: ACVR1B (Homo sapiens (Human), UniProt P36896)
Text: as §1

[40] = molecular target: FRK (Homo sapiens (Human), UniProt P42685)
Sequence of FRK (P42685 whole entry): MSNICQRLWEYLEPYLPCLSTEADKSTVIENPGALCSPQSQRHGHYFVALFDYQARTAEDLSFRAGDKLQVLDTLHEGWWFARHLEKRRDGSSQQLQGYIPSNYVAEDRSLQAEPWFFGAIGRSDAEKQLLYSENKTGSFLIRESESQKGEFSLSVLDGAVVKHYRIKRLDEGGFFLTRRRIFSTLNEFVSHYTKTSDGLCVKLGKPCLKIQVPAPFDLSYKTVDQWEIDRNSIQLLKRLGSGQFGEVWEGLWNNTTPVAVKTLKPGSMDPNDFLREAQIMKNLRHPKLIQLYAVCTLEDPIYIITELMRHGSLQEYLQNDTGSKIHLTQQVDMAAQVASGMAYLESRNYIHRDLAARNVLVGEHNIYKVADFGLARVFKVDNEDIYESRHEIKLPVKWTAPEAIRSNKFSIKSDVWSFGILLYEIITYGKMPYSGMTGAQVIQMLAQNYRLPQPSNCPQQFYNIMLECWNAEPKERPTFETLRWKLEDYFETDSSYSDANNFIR
Text: as §1

Row | Compound | remaining binding at 1 µM [1] [%] | remaining binding at 1 µM [2] [%] | remaining binding at 1 µM [3] [%] | remaining binding at 1 µM [4] [%] | remaining binding at 1 µM [5] [%] | remaining binding at 1 µM [6] [%] | remaining binding at 1 µM [7] [%] | remaining binding at 1 µM [8] [%] | remaining binding at 1 µM [9] [%] | remaining binding at 1 µM [10] [%] | remaining binding at 1 µM [11] [%] | remaining binding at 1 µM [12] [%] | remaining binding at 1 µM [13] [%] | remaining binding at 1 µM [14] [%] | remaining binding at 1 µM [15] [%] | remaining binding at 1 µM [16] [%] | remaining binding at 1 µM [17] [%] | remaining binding at 1 µM [18] [%] | remaining binding at 1 µM [19] [%] | remaining binding at 1 µM [20] [%] | further results
1 | CCN1CCN(Cc2ccc(Nc3nc4ccc(Oc5ccnc(NC(C)=O)c5)cc4n3C)cc2C(F)(F)F)CC1 [Compound I-2] | 1.2 | 0.25 | 94 | 54 | 100 | 100 | 94 | 98 | 85 | 97 | 77 | 100 | 80 | 78 | 100 | 100 | 88 | 80 | 85 | 100 | remaining binding at 1 µM [21]: 84%; remaining binding at 1 µM [22]: 98%; remaining binding at 1 µM [23]: 0.2%; remaining binding at 1 µM [24]: 23%; remaining binding at 1 µM [25]: 0.8%; remaining binding at 1 µM [26]: 83%; remaining binding at 1 µM [27]: 98%; remaining binding at 1 µM [28]: 100%; remaining binding at 1 µM [29]: 83%; remaining binding at 1 µM [30]: 61%; remaining binding at 1 µM [31]: 85%; remaining binding at 1 µM [32]: 98%; remaining binding at 1 µM [33]: 56%; remaining binding at 1 µM [34]: 78%; remaining binding at 1 µM [35]: 83%; remaining binding at 1 µM [36]: 77%; remaining binding at 1 µM [37]: 61%; remaining binding at 1 µM [38]: 100%; remaining binding at 1 µM [39]: 100%; remaining binding at 1 µM [40]: 45%
2 | CCN1CCN(Cc2ccc(Nc3nc4ccc(Oc5ccnc(NC(C)=O)c5)c(C)c4n3C)cc2C(F)(F)F)CC1 [Compound I-6, N-(4-(2-(4-((4-ethylpiperazin-1-yl)methyl)-3-(trifluoromethyl)phenylamino)-1,7-dimethyl-1H-benzo[d]imidazol-6-yloxy)pyridin-2-yl)acetamide] | 1.5 | 0 | 100 | 77 | 98 | 91 | 100 | 100 | 76 | 100 | 46 | 100 | 97 | 51 | 91 | 82 | 71 | 93 | 100 | 100 | remaining binding at 1 µM [21]: 78%; remaining binding at 1 µM [22]: 98%; remaining binding at 1 µM [23]: 0%; remaining binding at 1 µM [24]: 36%; remaining binding at 1 µM [25]: 1.8%; remaining binding at 1 µM [26]: 93%; remaining binding at 1 µM [27]: 66%; remaining binding at 1 µM [28]: 85%; remaining binding at 1 µM [29]: 93%; remaining binding at 1 µM [30]: 22%; remaining binding at 1 µM [31]: 83%; remaining binding at 1 µM [32]: 94%; remaining binding at 1 µM [33]: 81%; remaining binding at 1 µM [34]: 86%; remaining binding at 1 µM [35]: 97%; remaining binding at 1 µM [36]: 100%; remaining binding at 1 µM [37]: 32%; remaining binding at 1 µM [38]: 100%; remaining binding at 1 µM [39]: 94%; remaining binding at 1 µM [40]: 11%

— patent publication US12522583B2, “Benzimidazole derivatives and aza-benzimidazole derivatives as Janus kinase 2 inhibitors and uses thereof” (Dana-Farber Cancer Institute, Inc., priority 2018, dated 2026)
